ChEMBL document CHEMBL1121497, “Studies on cardiovascular agents. 6. Synthesis and coronary vasodilating and antihypertensive activities of 1,2,4-triazolo[1,5-a]pyrimidines fused to heterocyclic systems” (1980)

What was measured:
Rattus norvegicus = assay: Hypotensive index (HI) measured as the area under the time-hypotensive response curve for 6-h period at 30 mg/kg, po; assay type: functional
Cavia porcellus [1] = species on record: Cavia porcellus; assay: Integrated vasodilating potency (the product of compound-induced maximum percent decrease in the perfusion pressure and the duration of the effect in minutes at 100 ug (ia); Coronary vasoconstricting action); assay type: functional
Cavia porcellus [2] = species on record: Cavia porcellus; assay: Integrated vasodilating potency is the product of compound-induced maximum percent decrease in the perfusion pressure and the duration of the effect in minutes at 100 ug (ia); assay type: functional
Canis familiaris [3] = assay: Time taken for increase in coronary blood flow in anesthetized dogs after intravenous administration at 1 mg/kg; assay type: functional, Canis lupus familiaris, Blood/Heart
Canis familiaris [4] = assay: Maximum percent decrease in mean blood pressure in anesthetized dogs after intravenous administration at 0.3 mg/kg; assay type: functional, Canis lupus familiaris
Canis familiaris [5] = assay: Maximum percent decrease in mean blood pressure in anesthetized dogs after intravenous administration at 1 mg/kg; assay type: functional, Canis lupus familiaris
Canis familiaris [6] = assay: Percent increase in coronary blood flow in anesthetized dogs after intravenous administration at 1 mg/kg (p<0.05); assay type: functional, Canis lupus familiaris, Artery
Canis familiaris [7] = assay: Increase in coronary blood flow in anesthetized dogs was measured relative to trapidil (1 mg/kg) after intravenous administration of 1 mg/kg; assay type: functional, Canis lupus familiaris, Artery
Canis familiaris [8] = assay: Time taken for increase in coronary blood flow in anesthetized dogs after intravenous administration at 0.1 mg/kg; assay type: functional, Canis lupus familiaris, Blood/Heart
Cavia porcellus [9] = species on record: Cavia porcellus; assay: Integrated vasodilating potency (IVP) (the product of compound-induced maximum percent decrease in the perfusion pressure and the duration of the effect in minutes at 100 ug (ia)); assay type: functional
Canis familiaris [10] = assay: Percent increase in coronary blood flow in anesthetized dogs after intravenous administration at 0.3 mg/kg; assay type: functional, Canis lupus familiaris, Artery
Canis familiaris [11] = assay: Percent increase in coronary blood flow in anesthetized dogs after intravenous administration at 0.1 mg/kg; assay type: functional, Canis lupus familiaris, Artery
Canis familiaris [12] = assay: Maximum percent decrease in mean blood pressure in anesthetized dogs after intravenous administration at 0.1 mg/kg; assay type: functional, Canis lupus familiaris
Canis familiaris [13] = assay: Time taken for increase in coronary blood flow in anesthetized dogs after intravenous administration at 0.3 mg/kg; assay type: functional, Canis lupus familiaris, Blood/Heart
Canis familiaris [14] = assay: Increase in coronary blood flow in anesthetized dogs was measured relative to trapidil (1 mg/kg) after intravenous administration of 0.1 mg/kg; assay type: functional, Canis lupus familiaris, Artery
Canis familiaris [15] = assay: Increase in coronary blood flow in anesthetized dogs was measured relative to trapidil (1 mg/kg) after intravenous administration of 0.3 mg/kg; assay type: functional, Canis lupus familiaris, Artery

Row | Structure (SMILES) | HI (Rattus norvegicus) | IVP (Cavia porcellus [1]) | other results
1 | Cc1nc2nc(-c3ccc(Cl)cc3)nn2c2c1CCN2C(C)(C)C | 10 | Coronary vasoconstricting action | –
2 | Cc1nc2nc(-c3ccc(Cl)cc3)nn2c2c1CCN2CCCN1CCCC1 | 0 | Coronary vasoconstricting action | –
3 | Cc1nc2nc(-c3ccccc3)nn2c2c1CCN2C(C)(C)C | 0 | Coronary vasoconstricting action | –
4 | CCCCN1CCc2c(C)nc3nc(-c4ccccc4)nn3c21 | 10 | Coronary vasoconstricting action | –
5 | CCCCCCCN1CCc2c(C)nc3ncnn3c21 | 30 | – | IVP (Cavia porcellus [2]): 184
6 | Cc1nc2ncnn2c2c1CCN2CC(C)O (stereo not given) | 5 | Coronary vasoconstricting action | –
7 | COc1cc(-c2nc3nc(C)c4c(n3n2)N(Cc2ccccc2Cl)CC4)cc(OC)c1OC | 0 | Coronary vasoconstricting action | –
8 | Cc1nc2ncnn2c2c1CCN2C(C)(C)C [BUMEPIDIL] | 181 | – | Duration (Canis familiaris [3]): 10.6 min; Decrease (Canis familiaris [4]): -11.7%; Decrease (Canis familiaris [5]): -32.3%; Max (Canis familiaris [6]): 219.8%; Relative potency (Canis familiaris [7]): 8.4; Duration (Canis familiaris [8]): 4.3 min; IVP (Cavia porcellus [9]): 815; Max (Canis familiaris [10]): 132.3%; Max (Canis familiaris [11]): 34.7%; Decrease (Canis familiaris [12]): -3.3%; Duration (Canis familiaris [13]): 9.3 min; Relative potency (Canis familiaris [14]): 0.7; Relative potency (Canis familiaris [15]): 3.8
9 | Cc1nc2ncnn2c2c1CCCN2Cc1ccccc1Cl | 10 | Coronary vasoconstricting action | –
